Test results taken from patent US11540518B2, “Fungicidal oxadiazoles” (FMC Corporation, priority 2017, dated 2023).

Columns and labels:
Phakopsora pachyrhizi = test: Test A: Asian soybean rust control on soybean seedlings; type: in vivo; conditions: sprayed to run-off on soybean seedlings, inoculated the following day, 100 = 100% disease control, 0 = no control; for pest or weed control at 10 ppm: Phakopsora pachyrhizi, 216 h, read-out: Test A disease control rating
Description: General protocol for preparing test suspensions for Tests A-C: the test compounds were first dissolved in acetone in an amount equal to 3% of the final volume and then suspended at the desired concentration (in ppm) in acetone and purified water (50/50 mix by volume) containing 250 ppm of the surfactant PEG400 (polyhydric alcohol esters). The resulting test suspensions were then used in Tests A-C.
The test solution was sprayed to the point of run-off on soybean seedlings. The following day the seedlings were inoculated with a spore suspension of Phakopsora pachyrhizi (the causal agent of Asian soybean rust) and incubated in a saturated atmosphere at 22° C. for 24 h, and then moved to a growth chamber at 22° C. for 8 days, after which time visual disease ratings were made.
Results for Tests A-C are given in Table A. In the Table, a rating of 100 indicates 100% disease control and a rating of 0 indicates no disease control (relative to the controls). A dash (-) indicates the compound was not tested.

[1] = tested on: Puccinia recondita f. sp. tritici; test: Test C: wheat leaf rust control on wheat seedlings; type: in vivo; conditions: sprayed to run-off on wheat seedlings, inoculated the following day, 100 = 100% disease control, 0 = no control; for pest or weed control at 10 ppm: Puccinia recondita, 168 h, read-out: Test C disease control rating
Description: General protocol for preparing test suspensions for Tests A-C: the test compounds were first dissolved in acetone in an amount equal to 3% of the final volume and then suspended at the desired concentration (in ppm) in acetone and purified water (50/50 mix by volume) containing 250 ppm of the surfactant PEG400 (polyhydric alcohol esters). The resulting test suspensions were then used in Tests A-C. The test solution was sprayed to the point of run-off on wheat seedlings. The following day the seedlings were inoculated with a spore suspension of Puccinia recondita f. sp. tritici (the causal agent of wheat leaf rust) and incubated in a saturated atmosphere at 20° C. for 24 h, and then moved to a growth chamber at 20° C. for 6 days, after which time disease ratings were made. Results for Tests A-C are given in Table A. In the Table, a rating of 100 indicates 100% disease control and a rating of 0 indicates no disease control (relative to the controls). A dash (-) indicates the compound was not tested.

Row | Compound | Test A disease control rating (Phakopsora pachyrhizi; 10 ppm) [%] | Test C disease control rating ([1]; 10 ppm) [%] | Test A disease control rating (Phakopsora pachyrhizi; 50 ppm) [%] | Test C disease control rating ([1]; 50 ppm) [%] | also measured
1 | CCNC(=O)OC(C)c1ccc(-c2noc(C(F)(F)F)n2)cc1 (racemic) [Compound 19] | 100 | 74 | – | – | –
2 | COC(=O)c1ccc(CNC(=O)OC(C)c2ccc(-c3noc(C(F)(F)F)n3)cc2)cc1 (racemic) [Compound 25] | 100 | 26 | – | – | –
3 | CCOC(=O)c1ccc(CNC(=O)OC(C)c2ccc(-c3noc(C(F)(F)F)n3)cc2)cc1 (racemic) [Compound 27] | 100 | 0 | – | – | –
4 | CCNC(=O)OCCCc1ccc(-c2noc(C(F)(F)F)n2)cc1 [Compound 20] | 100 | 99 | – | – | –
5 | O=C(OCCCc1ccc(-c2noc(C(F)(F)F)n2)cc1)n1ccnc1 [Compound 21] | – | – | 100 | 99 | –
6 | O=C(Nc1cccnc1)OCc1ccc(-c2noc(C(F)(F)F)n2)cc1 [Compound 22] | 99 | 97 | – | – | –
7 | CC(OC(=O)Nc1cccnc1)c1ccc(-c2noc(C(F)(F)F)n2)cc1 (stereo not drawn) [Compound 23, 1-[4-[5-(trifluoromethyl)-1,2,4-oxadiazol-3-yl]phenyl]ethyl N-3-pyridinylcarbamate] | – | – | – | – | pest or weed control at 10 ppm (Phakopsora pachyrhizi; 10 ppm): 100%; pest or weed control at 10 ppm ([1]; 10 ppm): 97%
8 | COC(=O)c1ccc(CNC(=O)OCc2ccc(-c3noc(C(F)(F)F)n3)cc2)cc1 [Compound 24] | 13 | 68 | – | – | –
9 | CCOC(=O)c1ccc(CNC(=O)OCc2ccc(-c3noc(C(F)(F)F)n3)cc2)cc1 [Compound 26] | 95 | 26 | – | – | –
10 | CN(C)C(=O)OCCCc1ccc(-c2noc(C(F)(F)F)n2)cc1 [Compound 28] | 100 | 40 | – | – | –
11 | C=CCNC(=O)OCCCc1ccc(-c2noc(C(F)(F)F)n2)cc1 [Compound 29] | 100 | 74 | – | – | –
12 | C#CCNC(=O)OCCCc1ccc(-c2noc(C(F)(F)F)n2)cc1 [Compound 30] | 100 | 99 | – | – | –
13 | CNC(=O)OCCCc1ccc(-c2noc(C(F)(F)F)n2)cc1 [Compound 31] | 100 | 99 | – | – | –
14 | O=C(Nc1cccnc1)OCCc1ccc(-c2noc(C(F)(F)F)n2)cc1 [Compound 34] | – | – | 100 | 98 | –
15 | O=C(Nc1cccnc1)OCCCc1ccc(-c2noc(C(F)(F)F)n2)cc1 [Compound 35] | – | – | 100 | 100 | –
16 | CC#CCNC(=O)OCc1ccc(-c2noc(C(F)(F)F)n2)cc1 [Compound 36] | 100 | 100 | – | – | –
17 | C#CCNC(=O)OCc1ccc(-c2noc(C(F)(F)F)n2)s1 [Compound 37] | – | – | 100 | 100 | –
18 | O=C(OCCc1ccc(-c2noc(C(F)(F)F)n2)cc1)n1ccnc1 [Compound 40, 2-[4-[5-(trifluoromethyl)-1,2,4-oxadiazol-3-yl]phenyl]ethyl-1H-imidazole-1-carboxylate] | – | – | – | – | pest or weed control at 10 ppm (Phakopsora pachyrhizi; 10 ppm): 0%; pest or weed control at 10 ppm ([1]; 10 ppm): 18%
19 | NC(=O)OCCc1ccc(-c2noc(C(F)(F)F)n2)cc1 [Compound 41] | 100 | 99 | – | – | –
20 | CN(C)C(=O)OCCc1ccc(-c2noc(C(F)(F)F)n2)cc1 [Compound 44] | 100 | 41 | – | – | –
21 | C#CCNC(=O)OCCc1ccc(-c2noc(C(F)(F)F)n2)cc1 [Compound 45] | 100 | 93 | – | – | –

Row | Compound | Test A disease control rating (Phakopsora pachyrhizi; 10 ppm) [%] | Test C disease control rating ([1]; 10 ppm) [%] | Test A disease control rating (Phakopsora pachyrhizi; 50 ppm) [%] | Test C disease control rating ([1]; 50 ppm) [%] | also measured
22 | COC(=O)c1ccc(NC(=O)OCc2ccc(-c3noc(C(F)(F)F)n3)cc2)cc1 [Compound 47] | – | – | 100 | 41 | –
23 | COC(=O)c1ccc(NC(=O)OC(C)c2ccc(-c3noc(C(F)(F)F)n3)cc2)cc1 (stereo not drawn) [Compound 48] | – | – | 100 | 97 | –
24 | COC(=O)c1ccc(NC(=O)OCCc2ccc(-c3noc(C(F)(F)F)n3)cc2)cc1 [Compound 49] | – | – | 96 | 0 | –
25 | COC(=O)c1ccc(NC(=O)OCCCc2ccc(-c3noc(C(F)(F)F)n3)cc2)cc1 [Compound 50] | – | – | 0 | 0 | –
26 | C=CCNC(=O)OCc1ccc(-c2noc(C(F)(F)F)n2)cc1 [Compound 51] | 100 | 99 | – | – | –
27 | CCN(C)C(=O)OCc1ccc(-c2noc(C(F)(F)F)n2)cc1 [Compound 52] | 100 | 68 | – | – | –
28 | CCN(CC)C(=O)OCc1ccc(-c2noc(C(F)(F)F)n2)cc1 [Compound 53] | 100 | 68 | – | – | –
29 | O=C(NC1CC1)OCc1ccc(-c2noc(C(F)(F)F)n2)cc1 [Compound 54] | 100 | 92 | – | – | –
30 | N#CCNC(=O)OCc1ccc(-c2noc(C(F)(F)F)n2)cc1 [Compound 55] | 100 | 86 | – | – | –
31 | CCOC(=O)c1ccc(NC(=O)OCc2ccc(-c3noc(C(F)(F)F)n3)cc2)cc1 [Compound 57] | 100 | 0 | – | – | –
32 | CCOC(=O)c1ccc(NC(=O)OC(C)c2ccc(-c3noc(C(F)(F)F)n3)cc2)cc1 (stereo not drawn) [Compound 58] | – | – | 100 | 79 | –
33 | CCOC(=O)c1ccc(NC(=O)OCCc2ccc(-c3noc(C(F)(F)F)n3)cc2)cc1 [Compound 59] | – | – | 96 | 0 | –
34 | CCOC(=O)c1ccc(NC(=O)OCCCc2ccc(-c3noc(C(F)(F)F)n3)cc2)cc1 [Compound 60] | – | – | 0 | 0 | –
35 | C#CCNC(=O)OC(C)c1ccc(-c2noc(C(F)(F)F)n2)s1 (stereo not drawn) [Compound 61] | 100 | 100 | – | – | –
36 | CC#CCNC(=O)OC(C)c1ccc(-c2noc(C(F)(F)F)n2)cc1 (stereo not drawn) [Compound 62] | – | – | 100 | 100 | –
37 | CC#CCNC(=O)OCCc1ccc(-c2noc(C(F)(F)F)n2)cc1 [Compound 63] | – | – | 100 | 100 | –
38 | CC#CCNC(=O)OCCCc1ccc(-c2noc(C(F)(F)F)n2)cc1 [Compound 64] | – | – | 100 | 100 | –
39 | C#CCCNC(=O)OCCCc1ccc(-c2noc(C(F)(F)F)n2)cc1 [Compound 65] | – | – | 100 | 100 | –
40 | C#CCCNC(=O)OCCc1ccc(-c2noc(C(F)(F)F)n2)cc1 [Compound 66] | – | – | 100 | 100 | –
41 | C#CCCNC(=O)OC(C)c1ccc(-c2noc(C(F)(F)F)n2)cc1 (stereo not drawn) [Compound 67] | – | – | 100 | 100 | –
42 | CCOC(=O)c1ccc(CNC(=O)OCCc2ccc(-c3noc(C(F)(F)F)n3)cc2)cc1 [Compound 68] | – | – | 99 | 0 | –
